Experimental data as given in ChEMBL document CHEMBL1150582, “Brominated labdane-type diterpenoids from an Okinawan Laurencia sp” (J Nat Prod, 2002).
Activity calls are given as the source filed them.

Columns and labels:
Format in all cases: functional, organism-based
[1] = test system: Escherichia coli; assay: Antibacterial activity against Escherichia coli by paper disk diffusion method
[2] = test system: Staphylococcus aureus; assay: Antibacterial activity against Staphylococcus aureus by paper disk diffusion method
[3] = test system: Salmonella sp.; assay: Antibacterial activity against Salmonella sp. by paper disk diffusion method
[4] = test system: Pseudomonas sp.; assay: Antibacterial activity against Pseudomonas sp. by paper disk diffusion method
[5] = test system: Staphylococcus epidermidis; assay: Antibacterial activity against Staphylococcus epidermidis by paper disk diffusion method

Measured: Activity

C=C[C@@]1(C)CC[C@H]2[C@]3(C)[C@@H](OC(C)=O)C[C@@H](Br)C(C)(C)[C@H]3[C@@H](O)C[C@]2(C)O1
inactive: [1] | [2] | [3] | [4] | [5]

C=C[C@@]1(C)CC[C@H]2[C@]3(C)C(=O)C[C@@H](Br)C(C)(C)[C@H]3[C@@H](O)C[C@]2(C)O1
inactive: [1] | [2] | [3] | [4] | [5]
